Test results from article PMC11275179, “Superior Anticancer and Antifungal Activities of New Sulfanyl-Substituted Niclosamide Derivatives” (Biomedicines, 2024).

How the values were obtained:
SK-GT-4 EAC cells = assay: MTT proliferation assay, SK-GT-4 cells; type: cell-based; conditions: SKGT4, 72 h, read-out: Antiproliferative activity IC50, SK-GT-4
Procedure: (§1) The FLO-1, SK-GT-4, and THP-1 cell lines were a gift from Dr. Shrikant Anant’s laboratory. Cells were grown in 10% fetal bovine serum (Fisher Scientific#FB12999102, Pittsburgh, PA, USA) and 1% antibiotic/antimycotic agent (Corning, Tewksbury, MA, USA) in RPMI 1640 media mixed with […] HEPES, L-glutamine (Corning, MA, USA). The cell lines were grown in a 5% CO2 incubator at 37 °C and used below 15 passages for the experiments.
(§2) The proliferation assay used a 3-(4,5-dimethylthiazol-2-yl)-2,5-diphenyltetrazolium bromide (MTT) assay. Briefly, 5000 FLO-1 and SK-GT-4 cells were counted and seeded in each well in 96-well plates. Post 24 h of incubation, EAC cells were treated with multiple concentrations (0–10 μM) of niclosamide (Cayman chemical#10649, Ann Arbor, MI, USA) and its analogs. At respective time points, 10 μL of stock MTT reagent (Millipore Sigma, Bedford, MA, USA) (3 mg/mL) was added to each well and incubated for 1–2 h under the dark at 37 °C. After incubation, the purple formazan crystals were dissolved in equal volumes of DMSO, and the absorbance of the resulting clear solutions was recorded at 570 nm using a microplate reader. A CCK-8 (Abcam, Cat no. ab228554, Burlingame, CA, USA) assay was used for the THP-1 cells. Briefly, 5000 cells were plated in every well of a 96-well plate. After 24 h of plating, THP-1 cells were treated with niclosamide and compound 3a. After the respective time point, an equal amount of CCK-8 reagent was pipetted to the wells and incubated for one hour in an incubator, and finally, the absorbance was recorded at 450 nm. The percent change in the proliferation was calculated by comparing the cell viability of the treated groups to the untreated control cells.

FLO-1 EAC cells = assay: MTT proliferation assay, FLO-1 cells; type: cell-based; conditions: FLO-1, 72 h, read-out: Antiproliferative activity IC50, FLO-1
Procedure: as §1, §2

[1] = test system: SK-GT-4 and FLO-1 EAC cells; assay: Colony formation assay; type: cell-based; conditions: 1.5 µM (SK-GT-4) and 0.8 µM (FLO-1); both EAC cell lines
Procedure: In total, 500 SK-GT-4 and FLO-1 cells were seeded in each well of 6-well plates before 24 h treatment of niclosamide analog 3a IC50 concentration and an equivalent dose of niclosamide. The media was changed after 72 h with drug-free media to remove drug exposure and allow them to grow and form colonies for 10–12 days. At the end of the experiment, the colonies were washed using PBS three times, fixed with 10% formalin solution (Fisher Scientific#23-305510, Pittsburgh, PA, USA), and stained using a 1% crystal violet (Sigma-Aldrich#C6158, St. Louis, MO, USA) solution in 10% ethanol for 15 min. The colonies were then washed with water, dried at room temperature, counted, and imaged. The number of colonies in the treated cells was compared with untreated cells.

SK-GT-4 cells = assay: Spheroid formation assay; type: cell-based; conditions: 1.5 µM, SK-GT-4, 7 days
Procedure: In the ultra-low attachment plates (Corning, Lowell, MA, USA), 500 SK-GT-4 cells were seeded in each well with the spheroid media [DMEM medium supplemented with EGF (20 ng/mL), FGF (20 ng/mL), heparin (4 µg/mL), B27 (10 mL in 500 mL of 50×) (Invitrogen, Carlsbad, CA, USA), and antibiotic pen/strep (1%)]. After 24 h, spheroids were treated with 3a (IC50 dose) and an equivalent dose of niclosamide. Spheroids were counted after 7 days, and images were taken.

STAT3 = assay: Western blot, p-STAT3 and STAT3 in EAC cells; type: cell-based; conditions: SK-GT-4 1.5 µM and FLO-1 0.8 µM, 72 h
Procedure: (§3) A total of 500,000 FLO-1 and SK-GT-4 cells were seeded in 10 cm^2 dishes. After 24 h, cells were incubated with a vehicle, niclosamide analog 3a (IC50 concentration), and niclosamide (equivalent dose of 3a IC50 concentration). Then, 72 h post-treatment with the compounds, the media were removed to eliminate the dead/floating cells and washed with PBS. The cells were then scraped using a cell scraper in the lysis buffer containing a protease/phosphatase inhibitor cocktail (Thermo Scientific# A32959, Rockford, IL, USA). Further cells were lysed and sonicated using a probe sonicator (Fisher Scientific Model no FB120). The resulting lysates were centrifuged at 6500 rpm and 4 °C for 10 min. […] (Thermo Scientific, Rockford, IL, USA) method was used to estimate total protein levels in the prepared cell lysates, which were diluted with lysis buffer mixed with 2× Laemmli buffer (Biorad#1610737, Hercules, CA, USA) and boiled for 5 min at […]. Equal volumes of protein (50 μg) were used on the SDS-PAGE for separation using gel electrophoresis. […]

β-catenin = assay: Western blot, active non-phospho-β-catenin in EAC cells; type: cell-based; conditions: SK-GT-4 1.5 µM and FLO-1 0.8 µM, 72 h
Procedure: as §3

[2] = test system: M. mycetomatis MM55 strain; assay: In vitro susceptibility testing (MTS), MM55 strain; type: cell-based, Madurella mycetomatis; conditions: Madurella mycetomatis, MM55STRAIN
Procedure: The antifungal activity of the compounds was tested against a geographically and genetically diverse set of M. mycetomatis isolates. These included the MM55 strain from Sudan, strains I1, I3, and […] from India, strain P1 from Mali, strain SO1 from Somalia, strain Peru72012 from Peru, and strain CBS247.48 whose country of origin was unknown. All isolates were originally obtained from patients and identified and maintained in the Erasmus Medical Centre, Rotterdam, The Netherlands. In vitro susceptibility testing was performed as reported previously. The only difference was that tetrazolium compound 3-(4,5-dimethylthiazol-2-yl)-5-(3-carboxymethoxyphenyl)-2-(4-sulfophenyl)-2H-tetrazolium salt (MTS) was used as a viability dye in endpoint reading instead of 2,3-bis-(2-methoxy-4-nitro-5-sulfophenyl)-2H-tetrazolium-5-carboxanilide salt (XTT).

[3] = test system: M. mycetomatis SO1 isolate; design: method as in PMID 34209118; conditions: read-out: IC50 against the Somalian SO1 isolate; cited from earlier work

O=C(Nc1ccc([N+](=O)[O-])cc1Cl)c1cc(Cl)ccc1O [Niclosamide]
IC50 (SK-GT-4 EAC cells): 1770 ± 770 nM | IC50 (FLO-1 EAC cells): 1050 ± 280 nM | Inhibition of colony formation [1]: slightly less efficient than 3a | Inhibition of spheroid formation (SK-GT-4 cells): inhibit spheroid formation | Activating phosphorylation of STAT3 at TYR705 (Western blot) (STAT3): inhibited activating STAT3 phosphorylation but not as strongly as 3a | Active (non-phosphorylated) β-catenin (Western blot) (β-catenin): suppressed | IC50 ([2]; read-out: Antifungal activity IC50): 15000 ± 1600 nM | IC90 ([2]; read-out: Antifungal activity IC90): 23800 ± 100 nM | IC50 [3]: 2380 nM
